One series deals with CDK1/cyclin B (Homo sapiens, UniProt P06493). Nature of the series: Kinase assay CDK1/cyclin B (radioactive phosphate incorporation). The class given is biochemical. The settings on record: Ki calculated (Cheng-Prusoff) from experimentally determined IC50 and Km,ATP; read-out: Kinase Inhibition Ki CDK1 - cyclin B. The gist of the method:
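Radiometric assays measured transfer of radioactive phosphate from ATP onto polypeptide substrates, using 2-4 μg recombinant active enzyme in buffer typically containing 25 mM β-glycerophosphate, 20 mM MOPS, 5 mM EGTA, 1 mM DTT and 1 mM Na3VO3 at pH 7.4. Reactions were stopped on ice, filtered on P81 or GF/C plates and washed with orthophosphoric acid. Incorporated radioactivity was scintillation-counted.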

Another series has as its target CDK4/cyclin D1 (Homo sapiens, UniProt P11802). The series can be described thus: Kinase assay CDK4/cyclin D1. The note with it: Ki calculated (Cheng-Prusoff) from experimentally determined IC50 and Km,ATP; read-out: Kinase Inhibition Ki CDK4 - cyclin D1. The format is biochemical. An outline of the steps: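 Radiometric filter assays used recombinant kinases or complexes (2-4 μg) with appropriate polypeptide substrates in pH 7.4 β-glycerophosphate/MOPS buffer. Reactions were started with 15 mM MgCl2 and 100 μM ATP containing [γ-32P]-ATP and run at 30° C. Phosphate incorporated into substrate was counted by scintillation after washing.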

The subject of another series is PEPCK gene expression. Nature of the series: PEPCK gene expression assay - qPCR in HEPG2 cells. The class given is cell-based. The settings on record: Homo sapiens, HepG2, HEPG2, read-out: PEPCK gene expression, % of maximum stimulation. How it is done:
PEPCK gene expression was studied in HEPG2 (hepatocarcinoma) cells, seeded in 6-well plate at […] per well. The cells were serum-starved for 20 hours before treatment with dexamethasone/cAMP (stimulator of PEPCK gene expression) in the presence or absence of insulin or GSK3 inhibitor example compounds. After 3 hours treatment the cells were harvested, lysed and RNA extracted using mini RNeasy spin columns (Quiagen). The primer set COD2063/COD2064 (350 bp) was used for the PEPCK gene. The one step RT-PCR was carried out using the Lightcycler-RNA Master SYBR Green 1 Kit. The qPCR analysis calculates the number of the PCR cycles required for the PCR product amplification to reach logarithmic phase. QPCR for a housekeeping gene—28S—was used for normalisation. PEPCK is a key enzyme in gluconeogenesis in the liver and it is known to be negatively regulated by insulin via inhibition of GSK3. The effect of example compounds on PEPCK gene expression was studied in HEPG2 cells treated with dexamethasone/cAMP (a positive regulator PEPCK gene expression) in the presence or absence of insulin or GSK3 inhibitors. Example compound inhibitors of GSK3 were efficient in the abolishment of dexamethasone/cAMP induced stimulation of PEPCK gene expression in HEPG2 cells.

A short description of series [1]: Blood levels of test compounds in ZDF fa/fa rats. The format is in vivo, rat. The note with it: 30 mg/kg per os twice; for oral bioavailability (blood levels at 30 and 60 min after the glucose load): male ZDF fa/fa rats; for concentration at 30 min / concentration at 60 min: male, rat, whole blood, oral; for concentration at 30 min / concentration at 60 min / Average Blood levels: ZDF fa/fa rats. As to the method:
The ability of example compounds of the present invention to improve glucose metabolism was tested in 12-13 week old male ZDF fa/fa rats. The test animals (10-15 mmol/L fasting glucose level) were dosed twice at 30 mg/kg and the glucose challenge was given at time 0. […] Most of these blood levels were below the EC50 values determined in cellular assays.
12-13 weeks old male ZDF fa/fa rats were used to study the effect of example compounds on oral glucose tolerance. […] Body weight was recorded three times per week. Test compounds were dissolve in a formulation of 10% DMSO, 5% Tween, 5% Span 20, 30% PEG 400 and 50% water (v/v) to provide final solutions at 5 mg/mL concentration. Each experimental group contained 7 animals. After an 16 h overnight fast the test compounds were administered at 30 mg/kg per os twice (at −270 min and −30 min) before the oral glucose tolerance test was commenced (2 g glucose/kg per os as a 40% solution introduced via feeding tube). A control group was dosed in a similar manner with the vehicle only. Blood sampling for blood glucose measurement (20 μL blood) was performed at −270, 0, 15, 30, 60, 90, 120 and 180 min. Mixed venous blood was collected from the tail vein into 20-μL glass capillaries, which were placed in a standard tube filled with 1 mL solution for hemolysis. Glucose levels were measured using the glucose oxidase procedure (Super G Glukosemessgeraet; Dr Mueller Geraetebau, Freital, Germany). In addition, 50 μL blood samples were taken at 30 and 60 min after the glucose dose, placed in heparinized tubes, which were then frozen immediately in liquid nitrogen. The bioanalytical method used employed isocratic elution liquid chromatography—tandem mass spectrometry in electrospray positive ion multiple reaction monitoring mode.

Read-outs that look alike come from different tables or passages of the source.

One may read the Ki as a dissociation constant, usually derived from enzyme kinetics or from competition with a known ligand.

Sequence of CDK4/cyclin D1 (P11802 whole entry, species assumed): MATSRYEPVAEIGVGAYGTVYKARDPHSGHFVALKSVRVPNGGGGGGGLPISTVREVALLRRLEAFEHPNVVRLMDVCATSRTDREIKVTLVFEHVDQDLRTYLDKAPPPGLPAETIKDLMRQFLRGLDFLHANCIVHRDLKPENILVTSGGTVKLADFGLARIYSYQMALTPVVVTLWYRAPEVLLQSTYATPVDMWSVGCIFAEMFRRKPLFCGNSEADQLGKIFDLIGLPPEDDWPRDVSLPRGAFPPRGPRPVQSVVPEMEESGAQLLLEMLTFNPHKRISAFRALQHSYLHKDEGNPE
Sequence of CDK4/cyclin D1 (P24385 whole entry partner, species assumed): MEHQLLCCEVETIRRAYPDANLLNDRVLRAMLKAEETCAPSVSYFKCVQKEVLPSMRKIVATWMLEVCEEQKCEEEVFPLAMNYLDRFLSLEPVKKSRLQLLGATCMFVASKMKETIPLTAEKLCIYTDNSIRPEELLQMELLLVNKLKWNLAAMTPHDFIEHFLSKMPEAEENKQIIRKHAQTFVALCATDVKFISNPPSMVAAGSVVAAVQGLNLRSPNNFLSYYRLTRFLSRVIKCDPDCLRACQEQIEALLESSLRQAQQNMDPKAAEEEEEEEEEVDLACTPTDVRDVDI
Sequence of CDK1/cyclin B (P06493 whole entry, species assumed): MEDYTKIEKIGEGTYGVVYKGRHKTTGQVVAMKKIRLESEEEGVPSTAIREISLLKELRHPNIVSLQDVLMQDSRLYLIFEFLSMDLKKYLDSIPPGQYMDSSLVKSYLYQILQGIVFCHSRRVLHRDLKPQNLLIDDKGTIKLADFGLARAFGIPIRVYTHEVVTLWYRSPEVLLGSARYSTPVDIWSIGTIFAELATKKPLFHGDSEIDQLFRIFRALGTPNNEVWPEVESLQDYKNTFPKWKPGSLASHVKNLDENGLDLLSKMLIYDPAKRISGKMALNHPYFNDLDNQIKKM
Sequence of CDK1/cyclin B (P14635 whole entry partner, species assumed): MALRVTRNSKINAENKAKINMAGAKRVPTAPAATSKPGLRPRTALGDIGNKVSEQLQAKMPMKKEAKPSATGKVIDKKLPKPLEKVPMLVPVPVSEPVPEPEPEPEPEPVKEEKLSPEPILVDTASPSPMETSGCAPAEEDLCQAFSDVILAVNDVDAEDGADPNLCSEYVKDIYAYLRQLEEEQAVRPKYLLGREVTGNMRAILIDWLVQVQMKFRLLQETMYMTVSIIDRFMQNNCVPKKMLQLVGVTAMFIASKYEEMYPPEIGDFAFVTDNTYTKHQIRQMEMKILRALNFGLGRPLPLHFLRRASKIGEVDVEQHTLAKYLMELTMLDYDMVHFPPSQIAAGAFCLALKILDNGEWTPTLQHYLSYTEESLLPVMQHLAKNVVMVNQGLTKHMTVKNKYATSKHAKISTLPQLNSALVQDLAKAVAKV

For `Cc1c(-c2ccnc(Nc3cccc(S(=O)(=O)NCCO)c3)n2)sc(=O)n1C` [Compound 75, 3-[4-(3,4-Dimethyl-2-oxo-2,3-dihydro-thiazol-5-yl)-pyrimidin-2-ylamino]-N-(2-hydroxy-ethyl)-benzenesulfonamide], the figures for the Ki at CDK1/cyclin B and at CDK4/cyclin D1 were 620 nM and 150 nM, respectively. The Emax in the series on PEPCK gene expression (1 μM + Dex/cAMP) came to 37.2 ± 0.37%; in the series with PEPCK gene expression (10 μM + Dex/cAMP) it was 17.1 ± 0.68%.
`CC(=O)Nc1cc(Nc2nccc(-c3sc(=O)n(C)c3C)n2)cc(C(F)(F)F)c1` [Compound 64, N-{3-[4-(3,4-Dimethyl-2-oxo-2,3-dihydro-thiazol-5-yl)-pyrimidin-2-ylamino]-5-trifluoromethyl-phenyl}-acetamide]: the Ki at CDK1/cyclin B is 870 nM. Moreover, the Emax in the series on PEPCK gene expression (0.1 μM + Dex/cAMP) was found to be 11.4 ± 3.2%. Moreover, the “oral bioavailability (blood levels at 30 and 60 min after the glucose load)” value (“oral bioavailability” below) in series [1] is given as “some oral bioavailability”. Moreover, the concentration at 30 min in series [1] (time 30 min) was found to be 248 ng/mL. The molecule also registered a concentration at 60 min in series [1] (time 60 min) of 268 ng/mL.
For `Cc1c(-c2ccnc(Nc3cc(Br)cc(C(F)(F)F)c3)n2)sc(=O)n1C` [Compound 68, 5-[2-(3-Bromo-5-trifluoromethyl-phenylamino)-pyrimidin-4-yl]-3,4-dimethyl-3H-thiazol-2-one], in the series with PEPCK gene expression (10 μM + Dex/cAMP), the Emax came to 60.7 ± 20%. In addition, in series [1], the “oral bioavailability” value is given as “some oral bioavailability”. In series [1] (time 30 min), this molecule displayed a concentration at 30 min of 115 ng/mL. For the same molecule, the concentration at 60 min in series [1] (time 60 min) stood at 70.1 ng/mL.
Regarding `COCCNS(=O)(=O)c1cccc(Nc2nccc(-c3sc(=O)n(C)c3C)n2)c1` [Compound 67, 3-[4-(3,4-Dimethyl-2-oxo-2,3-dihydro-thiazol-5-yl)-pyrimidin-2-ylamino]-N-(2-methoxy-ethyl)-benzenesulfonamide], the Ki on CDK4/cyclin D1 is 1400 nM. The Emax in the series with PEPCK gene expression (1 μM + Dex/cAMP) came to 101 ± 38.2%; in the series with PEPCK gene expression (10 μM + Dex/cAMP), 17.4 ± 0.97%. In addition, the “oral bioavailability” value in series [1] is “some oral bioavailability”. This molecule had a concentration at 30 min in series [1] (time 30 min) of 350 ng/mL. This molecule also came in with a concentration at 60 min in series [1] (time 60 min) of 271 ng/mL.
As for `CNc1cc(Nc2nccc(-c3sc(=O)n(C)c3C)n2)cc(C(F)(F)F)c1` [Compound 76, 3,4-Dimethyl-5-[2-(3-methylamino-5-trifluoromethyl-phenylamino)-pyrimidin-4-yl]-3H-thiazol-2-one], the “Average Blood levels” value is on record as 43.0 ng/mL in series [1] (time 30 min) and 48.1 ng/mL in series [1] (time 60 min).
As to `CCNS(=O)(=O)c1cccc(Nc2nccc(-c3sc(=O)n(C)c3C)n2)c1` [Compound 62, 3-[4-(3,4-Dimethyl-2-oxo-2,3-dihydro-thiazol-5-yl)-pyrimidin-2-ylamino]-N-ethyl-benzenesulfonamide], the figures for the Ki on CDK1/cyclin B and at CDK4/cyclin D1 were 430 nM and 330 nM, respectively. This molecule also had a concentration at 30 min in series [1] (time 30 min) of 27.6 ng/mL. In series [1] (time 60 min), this molecule showed a concentration at 60 min of 29.7 ng/mL.

Source of the values: patent publication US7902361B2, “Pyrimidin-4-yl-3, 4-thione compounds and their use in therapy” (Cyclacel Limited, priority 2003, dated 2011).
